Measurements as given in EP0326329B1, “Quinazoline derivatives useful as insecticides” (Dow AgroSciences LLC, priority 1988, dated 1989).

How the values were obtained:
Assay type in all cases: in vivo
[1] = system: Erysiphe graminis tritici (powdery mildew); assay: Greenhouse Test 1, foliar spray fungicide screen (POWD MDEW), host wheat; details: disease control rating, 400 ppm (+++ at 100 ppm)
[2] = system: Pyricularia oryzae (rice blast); details: disease control rating, foliar spray, host rice; 400 ppm (+++ at 100 ppm)
[3] = system: Puccinia recondita tritici (leaf rust); assay: Greenhouse Test 1, foliar spray fungicide screen (LEAF RUST), host wheat; details: disease control rating, 400 ppm (+++ at 100 ppm)
[4] = system: Botrytis cinerea (gray mold); assay: Greenhouse Test 1, foliar spray fungicide screen (GRAY MOLD), host grape berries; details: disease control rating, 400 ppm (+++ at 100 ppm)
[5] = system: Pseudoperonospora cubensis (downy mildew); assay: Greenhouse Test 1, foliar spray fungicide screen (DOWN MDEW), host squash; details: disease control rating, 400 ppm (+++ at 100 ppm)
[6] = system: Cercospora beticola (leaf spot); assay: Greenhouse Test 1, foliar spray fungicide screen (LEAF SPOT), host sugar beet; details: disease control rating, 400 ppm (+++ at 100 ppm)
[7] = system: Venturia inaequalis (apple scab); assay: Greenhouse Test 1, foliar spray fungicide screen (APPL SCAB), host apple seedling; details: disease control rating, 400 ppm (+++ at 100 ppm)
[8] = system: Septoria tritici (leaf blotch); assay: Greenhouse Test 1, foliar spray fungicide screen (LEAF BLOT), host wheat; details: disease control rating, 400 ppm (+++ at 100 ppm)
[9] = system: Southern corn rootworm (Diabrotica undecimpuctata howardi Barber); assay: Mite/insect screen, soil treatment (CRW); details: Diabrotica, percent mortality, soil treatment, read-out: CRW RESULTS %; for mortality at 12 ppm: CRW rate 12.00 ppm; for mortality at 24 ppm: CRW rate 24.00 ppm
Procedure, shortened: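 Five 2–3 instar larvae were placed on dry sandy soil with a presoaked corn seed after the soil had received 1 mL of compound solution and dried 6–12 h; cups were kept capped at 23°C. Mortality (%) and phytotoxicity were read after standard exposure. Formulation: acetone/alcohol with emulsifiers, water-diluted.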

[10] = system: southern armyworm (Spodopetra eridania Cramer); assay: Mite/insect screen, sprayed squash leaves (SAW); details: Spodoptera eridania, percent mortality, read-out: SAW RESULTS %; for mortality at 200 ppm: spray rate 200 ppm; for mortality at 400 ppm: spray rate 400 ppm
Procedure, shortened: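 Water-diluted formulations of each compound (acetone/alcohol 50:50 with 23 g/L and 13 g/L emulsifier blends) are sprayed over both leaf faces to runoff. After a standard exposure period, percent kill and phytotoxicity are recorded.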

[11] = system: Twospotted spider mites (Tetranychus urticae Koch); assay: Mite/insect screen, sprayed squash cotyledons (SM); details: Tetranychus urticae, percent mortality, read-out: SM RESULTS %; for mortality at 200 ppm: spray rate 200 ppm; for mortality at 400 ppm: spray rate 400 ppm
Procedure, shortened: (§1)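 Steps: formulate compound in acetone/alcohol 50:50 carrying emulsifiers; dilute with water; spray leaves until runoff on upper and lower surfaces; air-dry one hour; for armyworm, excise two […] leaves into a dish of larvae; after exposure, score mortality and plant injury.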

[12] = system: melon aphids (Aphis gossypii Glover); assay: Mite/insect screen, sprayed squash cotyledons (MA); details: Aphis gossypii, percent mortality, read-out: MA RESULTS %; for mortality at 200 ppm: spray rate 200 ppm; for mortality at 400 ppm: spray rate 400 ppm
Procedure, shortened: as §1

Dawson-hop aphid = assay: Mite and insect field trials; details: plant: hops
Protocol: (§2) 4-[2-[4-(t-butyl)phenyl]ethoxy]quinazoline and 4-[2-(1,1'-biphenyl)-4 biphenyl)-4-ylethoxy]quinazoline were evaluated against a variety of mite and insect species in field trials.

European red mite = assay: Mite and insect field trials; details: plant: apples
Protocol: as §2

apple aphid = assay: Mite and insect field trials; details: plant: apples
Protocol: as §2

apple rust mite = assay: Mite and insect field trials; details: plant: apples
Protocol: as §2

bean aphid = assay: Mite and insect field trials; details: plant: bean, faba broad
Protocol: as §2

black citrus aphid = assay: Mite and insect field trials; details: plant: lemon
Protocol: as §2

cereal aphid = assay: Mite and insect field trials; details: plant: barley
Protocol: as §2

cotton aphid = assay: Mite and insect field trials; details: plant: cotton
Protocol: as §2

glasshouse whitefly = assay: Mite and insect field trials; details: tested on tomato
Protocol: as §2

grape leafhopper = assay: Mite and insect field trials; details: plant: grape (European)
Protocol: as §2

grape thrips = assay: Mite and insect field trials; details: plant: grape (European)
Protocol: as §2

green cloverworm = assay: Mite and insect field trials; details: plant: alfalfa (Lucerne)
Protocol: as §2

green peach aphid = assay: Mite and insect field trials
Protocol: as §2

greenhouse thrips = assay: Mite and insect field trials; details: plant: azaleas
Protocol: as §2

pea aphid = assay: Mite and insect field trials
Protocol: as §2

potato aphid = assay: Mite and insect field trials; details: plant: turnip
Protocol: as §2

potato leafhopper = assay: Mite and insect field trials; details: plant: alfalfa (Lucerne)
Protocol: as §2

rosy apple aphid = assay: Mite and insect field trials; details: plant: apples
Protocol: as §2

tarnished plant bug = assay: Mite and insect field trials; details: plant: alfalfa (Lucerne)
Protocol: as §2

thrips = assay: Mite and insect field trials; details: plant: privet
Protocol: as §2

twospotted spider mite = assay: Mite and insect field trials
Protocol: as §2

wheat aphid = assay: Mite and insect field trials; details: plant: wheat
Protocol: as §2

white apple leafhopper = assay: Mite and insect field trials; details: plant: apples
Protocol: as §2

yellow hickory aphid = assay: Mite and insect field trials; details: plant: pecan nut
Protocol: as §2

c1ccc(-c2ccc(CCOc3ncnc4ccccc34)cc2)cc1 [Example 85, 4-[2-(1,1'-biphenyl)-4-ylethoxy]quinazoline]
POWD MDEW [1]: ++ (++ = 90-100% control at 400 ppm) | RICE BLAST [2]: + (+ = 20-89% control at 400 ppm) | LEAF RUST [3]: +++ (+++ = 90-100% control at 100 ppm) | GRAY MOLD [4]: - (- = 0-19% control at 400 ppm) | DOWN MDEW [5]: +++ (+++ = 90-100% control at 100 ppm) | LEAF SPOT [6]: - (- = 0-19% control at 400 ppm) | APPL SCAB [7]: - (- = 0-19% control at 400 ppm) | LEAF BLOT [8]: +++ (+++ = 90-100% control at 100 ppm) | mortality at 12 ppm [9]: 0% | mortality at 24 ppm [9]: 0% | mortality at 200 ppm [10]: 10% | mortality at 400 ppm [10]: 80% | mortality at 200 ppm [11]: 100% | mortality at 400 ppm [11]: 100% | mortality at 200 ppm [12]: 100% | mortality at 400 ppm [12]: 100% | mite or insect species against which they showed activity in field trials (Dawson-hop aphid): Dawson-hop aphid | mite or insect species against which they showed activity in field trials (European red mite): European red mite | mite or insect species against which they showed activity in field trials (apple aphid): apple aphid | mite or insect species against which they showed activity in field trials (apple rust mite): apple rust mite | mite or insect species against which they showed activity in field trials (bean aphid): bean aphid | mite or insect species against which they showed activity in field trials (black citrus aphid): black citrus aphid | mite or insect species against which they showed activity in field trials (cereal aphid): cereal aphid | mite or insect species against which they showed activity in field trials (cotton aphid): cotton aphid | activity against glasshouse whitefly in field trials (glasshouse whitefly): showing activity | mite or insect species against which they showed activity in field trials (grape leafhopper): grape leafhopper | mite or insect species against which they showed activity in field trials (grape thrips): grape thrips | mite or insect species against which they showed activity in field trials (green cloverworm): green cloverworm | mite or insect species against which they showed activity in field trials (green peach aphid; plant: apples): green peach aphid | mite or insect species against which they showed activity in field trials (green peach aphid; plant: sugar beet): green peach aphid | mite or insect species against which they showed activity in field trials (greenhouse thrips): greenhouse thrips | mite or insect species against which they showed activity in field trials (pea aphid; plant: alfalfa (Lucerne)): pea aphid | mite or insect species against which they showed activity in field trials (pea aphid; plant: pea, garden (English)): pea aphid | mite or insect species against which they showed activity in field trials (potato aphid): potato aphid | mite or insect species against which they showed activity in field trials (potato leafhopper): potato leafhopper | mite or insect species against which they showed activity in field trials (rosy apple aphid): rosy apple aphid | mite or insect species against which they showed activity in field trials (tarnished plant bug): tarnished plant bug | mite or insect species against which they showed activity in field trials (thrips): thrips | mite or insect species against which they showed activity in field trials (twospotted spider mite; plant: azaleas): twospotted spider mite | mite or insect species against which they showed activity in field trials (twospotted spider mite; plant: broccoli): twospotted spider mite | mite or insect species against which they showed activity in field trials (twospotted spider mite; plant: plum (Japanese)): twospotted spider mite | mite or insect species against which they showed activity in field trials (wheat aphid): wheat aphid | mite or insect species against which they showed activity in field trials (white apple leafhopper): white apple leafhopper | mite or insect species against which they showed activity in field trials (yellow hickory aphid): yellow hickory aphid

c1ccc(-c2ccc(CCNc3ncnc4ccccc34)cc2)cc1 [Example 106, N-[2-(1,1'-biphenyl)-4-ylethyl]-4-quinazolinamine]
POWD MDEW [1]: +++ (+++ = 90-100% control at 100 ppm) | RICE BLAST [2]: +++ (+++ = 90-100% control at 100 ppm) | LEAF RUST [3]: +++ (+++ = 90-100% control at 100 ppm) | GRAY MOLD [4]: - (- = 0-19% control at 400 ppm) | DOWN MDEW [5]: +++ (+++ = 90-100% control at 100 ppm) | LEAF SPOT [6]: + (+ = 20-89% control at 400 ppm) | APPL SCAB [7]: +++ (+++ = 90-100% control at 100 ppm) | LEAF BLOT [8]: +++ (+++ = 90-100% control at 100 ppm) | mortality at 12 ppm [9]: 0% | mortality at 24 ppm [9]: 0% | mortality at 200 ppm [10]: 90% | mortality at 400 ppm [10]: 80% | mortality at 200 ppm [11]: 100% | mortality at 400 ppm [11]: 80% | mortality at 200 ppm [12]: 0% | mortality at 400 ppm [12]: 80%

CC(=O)N(CCc1ccc(-c2ccccc2)cc1)c1ncnc2ccccc12 [Example 108, N-[2-(1,1'-biphenyl)-4-ylethyl]-N-(4-quinazolinyl)acetamide]
POWD MDEW [1]: + (+ = 20-89% control at 400 ppm) | RICE BLAST [2]: +++ (+++ = 90-100% control at 100 ppm) | LEAF RUST [3]: + (+ = 20-89% control at 400 ppm) | GRAY MOLD [4]: - (- = 0-19% control at 400 ppm) | DOWN MDEW [5]: +++ (+++ = 90-100% control at 100 ppm) | LEAF SPOT [6]: ++ (++ = 90-100% control at 400 ppm) | APPL SCAB [7]: - (- = 0-19% control at 400 ppm) | LEAF BLOT [8]: +++ (+++ = 90-100% control at 100 ppm) | mortality at 12 ppm [9]: 0% | mortality at 24 ppm [9]: 0% | mortality at 200 ppm [10]: 0% | mortality at 400 ppm [10]: 0% | mortality at 200 ppm [11]: 60% | mortality at 400 ppm [11]: 90% | mortality at 200 ppm [12]: 30% | mortality at 400 ppm [12]: 20%

Clc1ccccc1OCCOc1ncnc2ccccc12 [Example 110, 4-[2-(2-chlorophenoxy)ethoxy]quinazoline]
POWD MDEW [1]: - (- = 0-19% control at 400 ppm) | RICE BLAST [2]: + (+ = 20-89% control at 400 ppm) | LEAF RUST [3]: ++ (++ = 90-100% control at 400 ppm) | GRAY MOLD [4]: - (- = 0-19% control at 400 ppm) | DOWN MDEW [5]: + (+ = 20-89% control at 400 ppm) | LEAF SPOT [6]: - (- = 0-19% control at 400 ppm) | APPL SCAB [7]: - (- = 0-19% control at 400 ppm) | LEAF BLOT [8]: - (- = 0-19% control at 400 ppm) | mortality at 12 ppm [9]: 0% | mortality at 24 ppm [9]: 0% | mortality at 200 ppm [10]: 0% | mortality at 400 ppm [10]: 0% | mortality at 200 ppm [11]: 0% | mortality at 400 ppm [11]: 0% | mortality at 200 ppm [12]: 0% | mortality at 400 ppm [12]: 0%
